From patent US20170066797A1, “WITHAFERIN A ANALOGS AND USES THEREOF” (Whitehead Institute for Biomedical Research, priority 2008, published 2017)

Key:
[1] = test system: Human umbilical vein endothelial cells (HUVEC); test: Endothelial cell network (tube) formation on Matrigel; type: cell-based; conditions: 16 h, FIG. 6
Method: FIG. 6. […] Human umbilical vein endothelial cells (HUVEC) were seeded into Matrigel-coated wells and allowed to adhere for 1 h. Adherent cells were exposed to the indicated concentrations of withaferin A, epi-withaferin A (α-WA) or an equal volume of solvent vehicle (DMSO) for 16 h. Cells were washed 1× in PBS and fixed to visualize tube formation by light microscopy.

[2] = test system: Ewing's sarcoma cells (CHP-100); conditions: 72 hours, MTT, FIG. 5
Excerpt: Relative viable cell number was quantified by MTT assay. Results are presented as a percentage compared to wells exposed to DMSO alone. […] Points: mean of triplicate determinations; Error bars: s.d.

[3] = test system: MCF-7 breast cancer cells; test: MTT proliferation/survival (cytotoxicity) assay, MCF-7; type: cell-based
Excerpt: FIG. 1. Concentration- and time-dependent cell proliferation/survival inhibition by 2,3-dihydrowithaferin A-3β-O-sulfate (WA-SO4) and withaferin A (WA). MCF-7 breast cancer cells were exposed to the indicated concentrations of compounds and relative viable cell number determined by dye reduction assay after the time intervals noted. Data are representative of three independent experiments.
(§1) A standard tetrazolium dye [3-(4,5-di-methylthiazol-2-yl)-2,5-diphenyltetrazoliumbromide; MTT]-based colorimetric assay was used to measure the proliferation/survival of cells in triplicate wells using a 96-well plate-based format. […] Cells were exposed continuously to test compounds for 24 or 72 h at which times related viable cell number per well was determined as previously described (Wijeratne, et al., J Nat. Prod. (2003) 66: 1567-1573, incorporated herein by reference).

[4] = test system: NCI-H460 (non small cell lung); test: Proliferation/survival assay, NCI-H460; type: cell-based; conditions: same time dependence as in MCF-7
Method: as §1

[5] = test system: PC-3M (metastatic prostate cancer); test: Proliferation/survival assay, PC-3M; type: cell-based; conditions: same time dependence as in MCF-7
Method: as §1

[6] = Conversion of 2,3-dihydrowithaferin A-3β-O-sulfate to withaferin A in cell culture media (HPLC); type: physicochemical; conditions: DMEM + 10% fetal bovine serum, 37° C., 4, 16, 24 h, FIG. 2
Method: FIGS. 2A and 2B. Conversion of 2,3-dihydrowithaferin A-3β-O-sulfate (solid circles) to withaferin A (solid squares) in cell culture medium. (A) Incubation of 2,3-dihydrowithaferin A-3β-O-sulfate in DMEM supplemented with 10% fetal bovine serum. (B) Incubation in cysteine/methionine-free DMEM supplemented with 10% fetal bovine serum. The concentration of 2,3-dihydrowithaferin A-3β-O-sulfate (solid circles) and its conversion to withaferin A (solid squares) was measured over time by HPLC using an external standard curve method.
Stock solutions of 2,3-dihydrowithaferin A-3β-O-sulfate in DMSO (50 μL) were diluted into cell culture medium (950 μL) to achieve the indicated starting concentration, mixed thoroughly and the solution incubated in a CO2 incubator at 37° C. Aliquots (100 μL) were withdrawn at 4, 16, and 24 h and subjected to HPLC analysis for 2,3-dihydrowithaferin A-3β-O-sulfate (RRT=18.5 min) and withaferin A (RRT=23.5 min) on a Kromasil C18 RP column (250×4.6 mm, […]) with gradient elution using 40-100% aqueous MeOH and using an ELSD detector. An external standard curve method was used to calculate the concentration of each compound in the sampled aliquots (Khajuria, et al., J Sep. Sci. (2004) 27: 541-546, incorporated herein by reference).

[7] = test system: WI-38 fibroblasts; test: Detection of F-actin aggregation (phalloidin staining); type: cell-based, Human; conditions: 4 μM, 4 or 24 h, FIG. 3
Method: FIGS. 3A-3D. Induction of F-actin aggregation. Following incubation with test compounds for the indicated intervals, WI-38 fibroblasts were fixed and stained with fluorescently-labeled phalloidin (green signal) to visualize the actin cytoskeleton. Cells were counterstained with DAPI (blue signal) to identify their nuclei. All images were acquired using the same magnification and exposure conditions. Data are representative of two independent experiments. (A) DMSO, 24 h incubation. (B) Withaferin A, 4 h. (C) 2,3-Dihydrowithaferin A-3β-O-sulfate, 4 h. (D) 2,3-Dihydrowithaferin A-3β-O-sulfate, 24 h.
Cells were seeded in 8-well chamber slides at a density of 2×10^4 cells per well and allowed to adhere for 48 h. Compounds 1 and 2 were freshly prepared as 5 mM stock solutions in DMSO and applied to cells at a final concentration of 4 μM in RPMI culture medium supplemented with 10% fetal bovine serum, Glutamax™, and penicillin/streptomycin. Control wells were treated with an equal volume of DMSO, not exceeding 0.2% in culture media. Cells were incubated for 4 or 24 h in the continuous presence of the indicated compounds, then washed twice with PBS, fixed with 4% paraformaldehyde/PBS (pH 7.6), and permabilized with 0.1% triton-X 100/PBS. […]

[8] = test system: minimal heat shock response element derived from the promoter region of the Hsp70B gene; test: Heat shock reporter (EGFP) induction; type: cell-based; conditions: overnight exposure, FIG. 8
Method: FIG. 8. Heat shock reporter induction measured by micro plate fluorimeter. Reporter cells stably transduced with a plasmid encoding enhanced green fluorescent protein (EGFP) under the control of a minimal heat shock response element were exposed to 2,3-dihydrowithaferin A-3β-O-sulfate (WA-SO4) or withaferin A (WA) at the indicated concentrations overnight. Relative fluorescence units (RFU) per well were determined as a measure of reporter activation. Each point represents the mean of nine determinations from three independent experiments.
Immortalized mouse embryo fibroblasts derived from homozygous Hsf1 knockout mice or their wild type littermates were exposed overnight to equitoxic concentrations of 1 or the known heat shock-inducing Hsp90 inhibitor gendanamycin. Whole cell lysates were prepared in non-ionic detergent buffer and immunoblotted for relative levels of Hsp72, a highly inducible member of the Hsp70 family of molecular chaperones, using monoclonal antibody C92F3A-5 (StressMarq Biosciences, Victoria, BC). Reactivity was detected using peroxidase-conjugated secondary antibody and chemiluminescent detection. To evaluate the relative ability of compounds to induce a heat shock response at the transcriptional level, a reporter cell line was used as previously described (Turbyville, et al., J. Nat. Prod. (2006) 69: 178-184, incorporated herein by reference). […]

Row | SMILES | inhibition of endothelial cell network formation [1] | inhibition of tumor cell growth in vitro, CHP-100 [2] | potency compared with withaferin A, MCF-7 ([3]; after ca. 72 hours) | inhibition of the proliferation/survival of MCF-7 breast cancer cells ([3]; dye reduction (MTT) assay, 24 or 72 h, FIG. 1) | proliferation/survival inhibition compared with withaferin A, NCI-H460 [4] | proliferation/survival inhibition compared with withaferin A, PC-3M [5] | conversion to withaferin A in cell culture media [6] | induction of F-actin aggregation [7] | heat shock reporter induction [8]
1 | CC1=C(CO)C(=O)OC([C@@H](C)C2CCC3C4C[C@H]5O[C@]56[C@H](O)C=CC(=O)[C@]6(C)C4CC[C@@]32C)C1 (stereo partly drawn) [epi-withaferin A] | Inhibition of endothelial cell network formation | Concentration-dependent inhibition of tumor cell growth in vitro | – | – | – | – | – | – | –
2 | CC1=C(CO)C(=O)OC(C(C)C2CC[C@H]3[C@@H]4C[C@H]5O[C@]56[C@@H](O)[C@@H](OS(=O)(=O)O)CC(=O)[C@]6(C)[C@H]4CC[C@]23C)C1 (stereo partly drawn) [2,3-dihydrowithaferin A-3β-O-sulfate] | – | – | equipotent with withaferin A | concentration- and time-dependent inhibition | same results | same results | conversion of dihydrowithaferin A-3β-O-sulfate to withaferin A in cell culture media | induced F-actin aggregation, but dihydrowithaferin A-3β-O-sulfate required a longer period of time | induces a robust heat shock response after overnight treatment of cells, albeit at higher concentrations than that of withaferin A
